Experimental data taken from PubChem BioAssay (NCI).
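Each compound was tested at five concentrations against cells in 96-well plates for 48 hours. Here, GI50 denotes the concentration required for 50% inhibition of growth. Definition used: TGI = concentration required for complete inhibition of growth.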

Experiments:
Assay in all cases: NCI-60 cell line screen, 48 h
786-0 renal = system: 786-0 renal
A549 NSCLC = system: A549 NSCLC
ACHN renal = system: ACHN renal
BT-549 breast = system: BT-549 breast
CAKI-1 renal = system: CAKI-1 renal
CCRF-CEM leukemia = system: CCRF-CEM leukemia
COLO 205 colon = system: COLO 205 colon
DU-145 prostate = system: DU-145 prostate
EKVX NSCLC = system: EKVX NSCLC
HCC-2998 colon = system: HCC-2998 colon
HCT-116 colon = system: HCT-116 colon
HCT-15 colon = system: HCT-15 colon
HL-60(TB) leukemia = system: HL-60(TB) leukemia
HOP-62 NSCLC = system: HOP-62 NSCLC
HOP-92 NSCLC = system: HOP-92 NSCLC
HS 578T breast = system: HS 578T breast
HT29 colon = system: HT29 colon
IGROV1 ovarian = system: IGROV1 ovarian
K-562 leukemia = system: K-562 leukemia
KM12 colon = system: KM12 colon
LOX IMVI melanoma = system: LOX IMVI melanoma
M14 melanoma = system: M14 melanoma
MALME-3M melanoma = system: MALME-3M melanoma
MCF7 breast = system: MCF7 breast
MDA-MB-231 breast = system: MDA-MB-231 breast
MDA-MB-435 = system: MDA-MB-435
MOLT-4 leukemia = system: MOLT-4 leukemia
NCI-H226 lung = system: NCI-H226 lung
NCI-H23 lung = system: NCI-H23 lung
NCI-H460 lung = system: NCI-H460 lung
NCI-H522 lung = system: NCI-H522 lung
NCI/ADR-RES ovarian = system: NCI/ADR-RES ovarian
OVCAR-3 ovarian = system: OVCAR-3 ovarian
OVCAR-4 ovarian = system: OVCAR-4 ovarian
OVCAR-5 ovarian = system: OVCAR-5 ovarian
OVCAR-8 ovarian = system: OVCAR-8 ovarian
PC-3 prostate = system: PC-3 prostate
RPMI-8226 leukemia = system: RPMI-8226 leukemia
RXF 393 renal = system: RXF 393 renal
SF-268 CNS = system: SF-268 CNS
SF-295 CNS = system: SF-295 CNS
SF-539 CNS = system: SF-539 CNS
SK-MEL-2 melanoma = system: SK-MEL-2 melanoma
SK-MEL-28 melanoma = system: SK-MEL-28 melanoma
SK-MEL-5 melanoma = system: SK-MEL-5 melanoma
SK-OV-3 ovarian = system: SK-OV-3 ovarian
SN12C renal = system: SN12C renal
SNB-19 CNS = system: SNB-19 CNS
SNB-75 CNS = system: SNB-75 CNS
SR leukemia = system: SR leukemia
SW-620 colon = system: SW-620 colon
T-47D breast = system: T-47D breast
TK-10 renal = system: TK-10 renal
U251 CNS = system: U251 CNS
UACC-257 melanoma = system: UACC-257 melanoma
UACC-62 melanoma = system: UACC-62 melanoma
UO-31 renal = system: UO-31 renal

## CCCC(=O)Oc1ccc(/C(=C(\C)c2ccc(Cl)cc2)c2ccc(OCCN(CC)CC)cc2)cc1
786-0 renal
  GI50: 1.74 µM
  TGI: 3.5 µM
A549 NSCLC
  GI50: 2.58 µM
  TGI: 6.91 µM
ACHN renal
  GI50: 3.39 µM
  TGI: 11.9 µM
BT-549 breast
  GI50: 4.85 µM
  TGI: 18.9 µM
CAKI-1 renal
  GI50: 3.99 µM
  TGI: 16.3 µM
CCRF-CEM leukemia
  GI50: 4.18 µM
  TGI: 15.5 µM
COLO 205 colon
  GI50: 1.82 µM
  TGI: 3.66 µM
DU-145 prostate
  GI50: 3.46 µM
  TGI: 12.4 µM
EKVX NSCLC
  GI50: 7.2 µM
  TGI: 21 µM
HCC-2998 colon
  GI50: 2.67 µM
  TGI: 7.06 µM
HCT-116 colon
  GI50: 1.55 µM
  TGI: 3.21 µM
HCT-15 colon
  GI50: 1.68 µM
  TGI: 3.73 µM
HL-60(TB) leukemia
  GI50: 2.23 µM
  TGI: 5.52 µM
HOP-62 NSCLC
  GI50: 2.16 µM
  TGI: 4.68 µM
HOP-92 NSCLC
  GI50: 7.76 µM
  TGI: 23.4 µM
HS 578T breast
  GI50: 2.68 µM
  TGI: 9.33 µM
HT29 colon
  GI50: 1.85 µM
  TGI: 4.06 µM
IGROV1 ovarian
  GI50: 6.99 µM
  TGI: 21.6 µM
K-562 leukemia
  GI50: 2.08 µM
  TGI: 5.09 µM
KM12 colon
  GI50: 3.05 µM
  TGI: 10.7 µM
LOX IMVI melanoma
  GI50: 1.85 µM
  TGI: 3.4 µM
M14 melanoma
  GI50: 1.9 µM
  TGI: 4.36 µM
MALME-3M melanoma
  GI50: 1.74 µM
  TGI: 3.55 µM
MCF7 breast
  GI50: 0.117 µM
  TGI: 3.47 µM
MDA-MB-231 breast
  GI50: 2.42 µM
  TGI: 5.13 µM
MDA-MB-435
  GI50: 1.78 µM
  TGI: 3.68 µM
MOLT-4 leukemia
  GI50: 3.09 µM
  TGI: 10.5 µM
NCI-H226 lung
  GI50: 8.8 µM
  TGI: 25 µM
NCI-H23 lung
  GI50: 3.69 µM
  TGI: 15.6 µM
NCI-H460 lung
  GI50: 2.12 µM
  TGI: 4.4 µM
NCI-H522 lung
  GI50: 12.9 µM
  TGI: 29.5 µM
NCI/ADR-RES ovarian
  GI50: 4.25 µM
  TGI: 16.5 µM
OVCAR-3 ovarian
  GI50: 6.98 µM
  TGI: 21.4 µM
OVCAR-4 ovarian
  GI50: 4.16 µM
  TGI: 19.4 µM
OVCAR-5 ovarian
  GI50: 4.84 µM
  TGI: 19.7 µM
OVCAR-8 ovarian
  GI50: 3.43 µM
  TGI: 11.9 µM
PC-3 prostate
  GI50: 0.56 µM
  TGI: 14.1 µM
RPMI-8226 leukemia
  GI50: 2.92 µM
  TGI: 9.02 µM
RXF 393 renal
  GI50: 1.72 µM
  TGI: 3.55 µM
SF-268 CNS
  GI50: 3.81 µM
  TGI: 19 µM
SF-295 CNS
  GI50: 1.93 µM
  TGI: 3.81 µM
SF-539 CNS
  GI50: 1.94 µM
  TGI: 3.98 µM
SK-MEL-2 melanoma
  GI50: 2.83 µM
  TGI: 5.93 µM
SK-MEL-28 melanoma
  GI50: 1.91 µM
  TGI: 3.91 µM
SK-MEL-5 melanoma
  GI50: 1.75 µM
  TGI: 3.21 µM
SK-OV-3 ovarian
  GI50: 4.85 µM
  TGI: 17.5 µM
SN12C renal
  GI50: 4.55 µM
  TGI: 18.1 µM
SNB-19 CNS
  GI50: 2.81 µM
  TGI: 7.29 µM
SNB-75 CNS
  GI50: 12.8 µM
  TGI: 30.2 µM
SR leukemia
  GI50: 1.98 µM
  TGI: 6.92 µM
SW-620 colon
  GI50: 1.99 µM
  TGI: 4.35 µM
T-47D breast
  GI50: 1.39 µM
  TGI: 4.88 µM
TK-10 renal
  GI50: 5.29 µM
  TGI: 20.7 µM
U251 CNS
  GI50: 1.95 µM
  TGI: 4.06 µM
UACC-257 melanoma
  GI50: 2.02 µM
  TGI: 4.18 µM
UACC-62 melanoma
  GI50: 2.06 µM
  TGI: 4.04 µM
UO-31 renal
  GI50: 1.43 µM
  TGI: 3.11 µM
